According to patent publication US10118908B2, “Method for manufacturing furan-2,5-dicarboxylic acid (FDCA) from a solid salt” (PURAC BIOCHEM BV, priority 2015, dated 2018):

How the values were obtained:
[1] = Solubility of FDCA in water as a function of magnesium chloride concentration; format: physicochemical; conditions: magnesium chloride solutions in water, stirred 24 h at 21.8° C. and 48.8° C., filtrate analysed by HPLC; values only in FIG. 3
Protocol: Magnesium chloride solutions in water were prepared by dissolving magnesium chloride hexahydrate in water. To each solution (30 g) solid FDCA was added and the mixture was stirred for 24 h at 21.8° C. After stirring a sample was taken and filtered by means of a 0.45 micron filter. The clear filtrate was analysed on FDCA content by means of HPLC. The experiment was repeated at 48.8° C.

[2] = Saturation concentration of MgFDC solution; format: physicochemical; conditions: solution at 20° C., as anhydrate
Protocol: The HCl was added over a period of about 1 hour and the final pH was 1.5. […] The solid FDCA was filtered off and washed with water. The concentration of 4 wt. % was chosen as it is the saturation concentration at 20° C.

Row | Structure (SMILES) | solubility of FDCA [1] | saturation concentration [2]
1 | O=C(O)c1ccc(C(=O)O)o1 [FDCA, furan-2,5-dicarboxylic acid] | depends strongly on temperature and on the concentration of magnesium chloride | –
2 | O=C([O-])c1ccc(C(=O)[O-])o1.[Mg+2] [MgFDC, magnesium furan-2,5-dicarboxylate] | – | 4 wt. %
